According to patent US20240190904A1, “Heteroaryl compounds as inhibitors of RIP2 kinase, composition and application thereof” (Accro Bioscience (HK) Limited, priority 2021, published 2024):

Key:
Assay type in all cases: in vivo
[1] = Pharmacokinetic evaluation in mice; details: for AUC / Vd / clearance / half-life / Cmax / Tmax: male, mouse, plasma
Experimental: The mice pharmacokinetic characteristics of compounds were tested by standard protocols. The candidate compounds were made into clear solution for single intravenous injection (i.v.) and suspension for oral administration (p.o.). Intravenous vehicle is 5% DMSO+95% Saline while oral vehicle is 0.5% CMCNa. The experiment used 48 male mice and 24 mice for intravenous at a dose of 2 mg/kg. Plasma samples were collected at 0 h (before dosing) and 0.083 h, 0.25 h, 0.5 h, 1 h, 2 h, 4 h, 8 h, 24 h after dosing. Another 24 mice were orally administrated with a dose of 10 mg/kg. Plasma samples were collected at 0 h (before dosing) and 0.25 h, 0.5 h, 1 h, 2 h, 4 h, 6 h, 8 h, 24 h after dosing.
(§1) Blood samples were placed in tubes containing K2-EDTA and stored on ice until centrifuged. The blood samples were centrifuged at 6800 g for 6 minutes at 2-8° C. within 1 h after collected and stored frozen at approximately −80° C.
(§2) The analytical results were confirmed using quality control samples for intra-assay variation. The accuracy of >66.7% of the quality control samples and 50% of all QC samples at each concentration level were between 80-120% of the known value(s).
(§3) Standard set of parameters including Area Under the Curve (AUC(0-t) and AUC(0-∞)), elimination half-live (T1/2), maximum plasma concentration (Cmax), time to reach maximum plasma concentration (Tmax) were calculated using noncompartmental analysis modules in FDA certified pharmacokinetic program Phoenix WinNonlin 7.0 (Pharsight, USA) by the Study Director.

[2] = Pharmacokinetic evaluation in rats; details: for AUC / Vd / clearance / half-life / Cmax / Tmax: male, plasma; for AUC / Vd / clearance / half-life / Cmax / Tmax / F: rat
Experimental: The rat pharmacokinetic characteristics of compounds were tested by standard protocols. The candidate compounds were made into clear solution for single intravenous injection (i.v.) and suspension for oral administration (p.o.). Intravenous vehicle is 5% DMSO+95% Saline while oral vehicle is 0.5% CMCNa. The experiment used 9 male rats and 3 rats for intravenous at a dose of 2 mg/kg. Plasma samples were collected at 0 h (before dosing) and 0.083 h, 0.25 h, 0.5 h, 1 h, 2 h, 4 h, 8 h, 24 h after dosing. 3 rats were orally administrated at a dose of 10 mg/kg and 3 rats were orally administrated at a dose of 100 mg/kg. Plasma samples were collected at 0 h (before dosing) and 0.25 h, 0.5 h, 1 h, 2 h, 4 h, 6 h, 8 h, 24 h after dosing.
as §1, §2, §3

[3] = Pharmacokinetic evaluation in beagle dog; details: for AUC / Vd / clearance / half-life / Cmax / Tmax: plasma
Experimental: The beagle dog pharmacokinetic characteristics of compounds were tested by standard protocols. The candidate compounds were made into clear solution for single intravenous injection (i.v.) and suspension for oral administration (p.o.). Intravenous vehicle is 5% DMSO+95% Saline while oral vehicle is 0.5% CMCNa. The experiment used 9 dogs. The dogs for intravenous at a dose of 1 mg/kg. Plasma samples were collected at 0 h (before dosing) and 0.083 h, 0.25 h, 0.5 h, 1 h, 2 h, 4 h, 8 h, 24 h after dosing. Three dogs were orally administrated at a dose of 5 mg/kg. Another 3 dogs were orally administrated at a dose of 15 mg/kg or 30 mg/kg. Plasma samples were collected at 0 h (before dosing) and 0.25 h, 0.5 h, 1 h, 2 h, 4 h, 6 h, 8 h, 24 h after dosing.
as §1, §2, §3

MDP induced peritonitis = assay: MDP (muramyl dipeptide) induced peritonitis, IL-6 by ELISA; details: mice, gavage, same dosage as GSK2983559 (10 mg/kg), 3 hours post MDP
Experimental: Mice were divided into four groups Including normal group, DMSO group, positive control group (GSK2983559) and compound group. Mice were dosed by gavage with either GSK2983559 at 10 mg/kg or candidate compounds at 3, 10 mg/kg 30 minutes prior to MDP injection (100 μg/mouse, ip). At 3 hours post MDP administration, the blood sample was collected from ocular vein after anesthesia. IL-6 levels were detected by ELISA.

| Structure (SMILES) | plasma exposure and bioavailability in mice (in words) [1] | AUC ([1]; iv, i.v. 2 mg/kg) [ng·h/mL] | Vd ([1]; iv, i.v. 2 mg/kg) [L/kg] | clearance ([1]; iv, i.v. 2 mg/kg) [mL/min/kg] | half-life ([1]; iv, i.v. 2 mg/kg) [h] | AUC ([1]; po, p.o. 10 mg/kg) [ng·h/mL] | Cmax ([1]; po, p.o. 10 mg/kg) [ng/mL] | Tmax ([1]; po, p.o. 10 mg/kg) [h] | F ([1]; p.o. 10 mg/kg) [%] | plasma exposure and bioavailability in rat (in words) [2] | AUC ([2]; iv, i.v. 2 mg/kg) [ng·h/mL] | Vd ([2]; iv, i.v. 2 mg/kg) [L/kg] | clearance ([2]; iv, i.v. 2 mg/kg) [mL/min/kg] | half-life ([2]; iv, i.v. 2 mg/kg) [h] | AUC ([2]; po, p.o. 10 mg/kg) [ng·h/mL] | Cmax ([2]; po, p.o. 10 mg/kg) [ng/mL] | Tmax ([2]; po, p.o. 10 mg/kg) [h] | Cmax ([2]; po, p.o. 100 mg/kg) [ng/mL] | Tmax ([2]; po, p.o. 100 mg/kg) [h] | F ([2]; p.o. 10 mg/kg) [%] | also measured |
| --- | --- | --- | --- | --- | --- | --- | --- | --- | --- | --- | --- | --- | --- | --- | --- | --- | --- | --- | --- | --- | --- |
| COc1cc2nccc(Nc3ccc4scnc4c3)c2cc1P(C)(C)=O [A6] | excellent plasma exposure and bioavailability | 2990 | 1.1 | 11.1 | 1.2 | 19200 | 9610 | 0.5 | 129 | excellent plasma exposure and bioavailability | 7890 | 0.6 | 4.2 | 1.7 | 18800 | 3320 | 3.3 | 68400 | 4.7 | 48 | AUC ([2]; po, p.o. 100 mg/kg): 729000 ng·h/mL; F ([2]; p.o. 100 mg/kg): 185%; plasma exposure and bioavailability in beagle dog (in words) [3]: excellent plasma exposure and bioavailability; F ([3]; p.o. 5 mg/kg): 131%; F ([3]; p.o. 30 mg/kg): 184%; AUC ([3]; iv, i.v. 1 mg/kg): 1640 ng·h/mL; Vd ([3]; iv, i.v. 1 mg/kg): 1.7 L/kg; clearance ([3]; iv, i.v. 1 mg/kg): 9.5 mL/min/kg; half-life ([3]; iv, i.v. 1 mg/kg): 2.1 h; AUC ([3]; po, p.o. 5 mg/kg): 10800 ng·h/mL; Cmax ([3]; po, p.o. 5 mg/kg): 2190 ng/mL; Tmax ([3]; po, p.o. 5 mg/kg): 0.7 h; AUC ([3]; po, p.o. 30 mg/kg): 90800 ng·h/mL; Cmax ([3]; po, p.o. 30 mg/kg): 8630 ng/mL; Tmax ([3]; po, p.o. 30 mg/kg): 2.7 h; inhibition of the level of IL-6 compared with positive control (in words) (MDP induced peritonitis): more effectively than positive control GSK2983559 |
| CP(C)(=O)c1cc2c(Nc3ccc4scnc4c3)ccnc2cc1OC(F)(F)F [A24] | excellent plasma exposure and bioavailability | 22600 | 0.27 | 1.5 | 2.2 | 89100 | 16200 | 0.8 | 79 | excellent plasma exposure and bioavailability | 26500 | 0.19 | 1.2 | 18 | 248000 | 20400 | 1.8 | 197000 | 24 | 187 | F ([2]; p.o. 100 mg/kg): 244%; plasma exposure and bioavailability in beagle dog (in words) [3]: excellent plasma exposure and bioavailability; F ([3]; p.o. 5 mg/kg): 212%; F ([3]; p.o. 15 mg/kg): 88%; AUC ([3]; iv, i.v. 1 mg/kg): 3800 ng·h/mL; Vd ([3]; iv, i.v. 1 mg/kg): 0.7 L/kg; clearance ([3]; iv, i.v. 1 mg/kg): 4.3 mL/min/kg; half-life ([3]; iv, i.v. 1 mg/kg): 1.9 h; AUC ([3]; po, p.o. 5 mg/kg): 40300 ng·h/mL; Cmax ([3]; po, p.o. 5 mg/kg): 9720 ng/mL; Tmax ([3]; po, p.o. 5 mg/kg): 1.1 h; AUC ([3]; po, p.o. 15 mg/kg): 50400 ng·h/mL; Cmax ([3]; po, p.o. 15 mg/kg): 13300 ng/mL; Tmax ([3]; po, p.o. 15 mg/kg): 3 h; inhibition of the level of IL-6 compared with positive control (in words) (MDP induced peritonitis): more effectively than positive control GSK2983559 |
